Experimental data from patent US20230304010A1, “COMPOSITIONS AND METHODS FOR TREATING VIRAL INFECTIONS” (priority 2020, published 2023).
Like-named read-outs stand apart in the source and are kept apart here.

How the values were obtained:
[1] = test system: SARS-CoV-2 variants (Alpha/Beta/Delta); format: cell-based
[2] = test system: ACE2 : SARS-CoV-2 Spike Beta (B1.351/South Africa) variant; format: binding; conditions: read-out: IC50, Beta (B1312)
[3] = test system: ACE2 : SARS-CoV-2 Spike Gamma (P1/Brazil) variant; format: binding
[4] = test system: ACE2 : SARS-CoV-2 Spike Epsilon (B1429) variant; format: binding
[5] = test system: ACE2 : SARS-CoV-2 Spike Alpha (B1.1.7/United Kingdom) variant; format: binding; conditions: read-out: IC50, Alpha (B117)
[6] = test system: ACE2 : SARS-CoV-2 Spike Delta (B1 617 2/India) variant; format: binding; conditions: read-out: IC50, Delta (B1617)

## CC(=O)N[C@@H](CCC(=O)O)C(=O)N[C@@H](CCC(N)=O)C(=O)N[C@@H](C)C(=O)N[C@@H](CCCCN)C(=O)N[C@H](C(=O)N[C@@H](Cc1ccccc1)C(=O)N[C@@H](CC(C)C)C(=O)N[C@@H](CC(=O)O)C(=O)N[C@@H](CCCCN)C(=O)N[C@@H](Cc1ccccc1)C(=O)N[C@@H](CC(N)=O)C(=O)N[C@@H](Cc1c[nH]cn1)C(=O)N[C@@H](CCC(=O)O)C(=O)N[C@@H](C)C(=O)N[C@@H](CCC(=O)O)C(=O)N[C@@H](CC(=O)O)C(=O)N[C@@H](CC(C)C)C(=O)N[C@@H](Cc1ccccc1)C(=O)NCCCCCC(=O)N[C@@H](CC(C)C)C(=O)N[C@@H](Cc1c[nH]c2ccccc12)C(=O)N[C@@H](CCCNC(=N)N)C(=O)N[C@@H](C)C(=O)N[C@@H](CC(C)C)C(=O)N[C@@H](Cc1c[nH]c2ccccc12)C(=O)N[C@@H](CCCNC(=N)N)C(=O)N[C@@H](CC(C)C)C(=O)N[C@@H](Cc1c[nH]c2ccccc12)C(=O)N[C@@H](CCCNC(=N)N)C(=O)N[C@@H](CO)C(=O)N[C@@H](CC(C)C)C(=O)N[C@@H](Cc1c[nH]c2ccccc12)C(=O)N[C@@H](CCCNC(=N)N)C(=O)N[C@@H](CC(C)C)C(=O)N[C@@H](CC(C)C)C(=O)N[C@@H](Cc1c[nH]c2ccccc12)C(=O)N[C@@H](CCCCN)C(N)=O)[C@@H](C)O [Seq33]
[1]
  fold stronger anti-SARS-CoV-2 activity than Remdesivir: 200 fold
[2]
  IC50: 28.8 ± 10 nM
[3]
  IC50: 20.2 ± 5 nM
[4]
  IC50: 31.4 ± 9 nM
[5]
  IC50: 17.8 ± 9 nM
[6]
  IC50: 25.7 ± 8 nM

## Ac-N*GVEGFNK*Ava-LWRALWRLWRSLWRLLWK-NH2 [Seq17]
SARS-CoV-2 Beta variant; read-out: Beta (B1312) IC50
  IC50: 118 ± 15 nM
SARS-CoV-2 Beta variant; read-out: IC50, Beta (B1312)
  IC50: 118 ± 15 nM
[2]
  IC50: 75.2 ± 21 nM
[3]
  IC50: 87.2 ± 20 nM
[4]
  IC50: 94.7 ± 17 nM
[5]
  IC50: 136 ± 21 nM
[6]
  IC50: 48.2 ± 11 nM
SARS-CoV-2 Alpha variant; read-out: Alpha (B117) IC50
  IC50: 125 ± 24 nM
SARS-CoV-2 Alpha variant; read-out: IC50, Alpha (B117)
  IC50: 125 ± 24 nM
SARS-CoV-2 Delta variant; read-out: Delta (B1617) IC50
  IC50: 25.7 ± 10 nM
SARS-CoV-2 Delta variant; read-out: IC50, Delta (B1617)
  IC50: 25.7 ± 10 nM

## GGCCAAACTGTCACTAAGAAA (chemistry not given here) [DIVC-6]
[1]
  inhibitory activity against all SARS-CoV2 variant viruses: potent inhibitory activity
SARS-CoV-2 Beta variant; read-out: Beta (B1312) IC50
  IC50: 58.5 nM
SARS-CoV-2 Alpha variant; read-out: Alpha (B117) IC50
  IC50: 84.5 nM
SARS-CoV-2 Delta variant; read-out: Delta (B1617) IC50
  IC50: 91.3 nM
